The source of these data is article PMC4545774, “Identification of inhibitors that target dual-specificity phosphatase 5 provide new insights into the binding requirements for the two phosphate pockets” (BMC Biochemistry, 2015).

Values joined by “and” are separate entries in the source; they are usually repeats but may differ in a detail not shown here. Equal entries are not always repeated. “Also recorded” adds a separate entry of the source. Where two headings read alike, the source gives them in different places.

In data set [1] the target is T1, DUSP5 PD(WT) (Homo sapiens, UniProt Q16690).
T1 construct: hexa-histidine (N); made in house; host or cells: E. coli BL21(DE3)
T1 sequence (Q16690 178-319 limits assumed): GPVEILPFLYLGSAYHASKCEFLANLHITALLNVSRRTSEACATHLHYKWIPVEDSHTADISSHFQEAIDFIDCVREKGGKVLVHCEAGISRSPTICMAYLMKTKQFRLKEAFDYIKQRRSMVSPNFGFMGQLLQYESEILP
Description: p-nitrophenol phosphate (pNPP) phosphatase activity / IC50 assay. Type of data set: biochemical. The settings on record: for effect of detergent on inhibition: presence vs absence of 0.5 % Triton X-100. From the text:
To measure enzymatic activity of the DUSP5 PD and the inhibitory capacity of selected molecules, an in vitro phosphatase assay was developed based on previous studies. In this assay, DUSP5 PD will dephosphorylate the substrate p-nitrophenol phosphate (pNPP, Sigma Aldrich), yielding p-nitrophenolate, which absorbs at 405 nm with an extinction coefficient of 18,000 M^−1 cm^−1.
Thus, an increase in absorbance at 405 nm corresponds to the turnover of pNPP to p-nitrophenolate. The assay was initially optimized in 1 mL quartz cuvettes, then was subsequently optimized for and validated in a 96-well plate format. All IC50 values were obtained using the 96-well plate assay format (see below). The assay buffer contained 100 mM Tris, 100 mM sodium chloride, 5 mM magnesium chloride, and 1 mM DTT at pH 7.5. The pNPP substrate was prepared as a 50 mM stock by dissolving the solid substrate in assay buffer. The DUSP5 PD and pNPP were assayed initially in a cuvette (1 mL total volume) and initial velocities were fitted to the Michaelis-Menten equation:1 v=VmaxS/Km+S where v is the initial velocity, Vmax is the maximum velocity, Km is the Michaelis constant, and [S] is the concentration of pNPP. Data were fitted using a nonlinear least squares fit to eq. 1, with GraphPad Prism 6 software.
For the 96-well plate validation assay, sodium orthovanadate (Sigma Aldrich) was utilized as a positive control for inhibition at a final concentration of 10 μM, to completely block DUSP5(WT) enzymatic activity. All plate assays were performed in standard 96-well clear bottom plates (Thermo Scientific Nunc) with a total assay volume of 200 μL, using a SpectraMax M5 Microplate Reader (Molecular Devices). The plate validation assay was performed with replicate columns of positive control wells, negative control wells and blank wells. Blank columns contained only buffer and pNPP. Negative control (uninhibited) contained buffer, pNPP, and DUSP5 PD(WT); and, positive control contained the same components, but also contained 10 μM sodium orthovanadate. The plate was then shaken and allowed to equilibrate in the spectrophotometer at 25 °C for 30 min. After incubation, 4 μL of a 50 μM enzyme stock was dispensed into appropriate wells utilizing a single-channel pipette. This produced a final enzyme concentration of 1 μM. Before a read was taken, the plate was shaken for five seconds. […] The endpoint reading was subsequently taken at 90 min after initiation of reaction.
IC50 values were obtained using the assay described above, in 96 well plates. The maximum inhibitor concentration screened in any plate was […] and the minimum screened concentration was 1 μM. The IC50 plate was designed so that the first column of wells served as blanks, with wells containing only buffer and substrate. The second column of wells functioned as the plate negative control, with each well containing buffer, substrate and enzyme. The remaining wells in the plate contained buffer, substrate, enzyme, and varying amounts of inhibitor, with inhibitor concentration increasing from left to right across the plate. Data points were collected at a minimum in triplicate, and inhibitor concentrations were chosen to provide data equally spread on a logarithmic scale. The composition of buffer and the concentrations of substrate and enzyme utilized were identical to those in the plate validation assay. After initiation and shaking, a ten-minute kinetic read was taken.
For each plate assayed, the slope values for all negative control wells were averaged and the measured value considered representative of full enzymatic activity.

Data set [2] can be described thus: Nephelometry (aggregation in solution). The class given is physicochemical. The settings on record: 10-100 μM, pH 7.5 buffer; for aggregation: nephelometry. How it is done:
Nephelometry is a technique for measuring the relative aggregation of particles in solution, based on the light-scattering properties of molecular aggregates. We performed nephelometry to explore the ability of the chemicals studied herein to form aggregates, which can lead to artifactual inhibition effects. Compounds were tested for aggregation in 96-well plates using a buffer containing 100 mM Tris base, 100 mM sodium chloride, and 5 mM magnesium chloride at pH 7.5. Each compound analyzed in these experiments contained concentrations of compound ranging from 10-100 μM, recorded in quadruplet. Each plate was analyzed at two separate gain values of 52 and 72. Data were collected using a BMG NEPHELOstar Plus, equipped with a 635 nm laser.

The next data set deals with panel of 21 phosphatases. Description: Screen against a panel of 21 phosphatases. Type of data set: biochemical. The conditions noted are these: at up to 30 μM.
The next data set deals with T2, DUSP5 PD(C263S).
T2 construct: a C-terminal phosphatase domain (PD); hexa-histidine (N); made in house; host or cells: E. coli BL21(DE3)
Description: NMR binding assay (2D 1H-15N HSQC). The settings on record: 250 μM RR505 or 500 μM CSD^3_2320, pH 6.8. Details: species or system human. How it is done:
NMR samples of DUSP5 PD(C263S) were prepared for 2D ^1H-^15N HSQC (heteronuclear single quantum coherence) spectral titration studies. The ^15 N-labeled DUSP5 PD(C263S) protein was concentrated using an Amicon Ultra-4 centrifugal device (Millipore) to 600 μM. NMR samples were prepared with the following conditions for RR505: 250 μM RR505, 250 μM DUSP5 PD(C263S), 10 % D2O, 50 mM potassium phosphate, 100 mM KCl, and 2 mM DTT at pH 6.8 and for CSD^3-2320: 0 or 500 μM CSD^3-2320, 500 μM DUSP5 PD(C263S), 10 % D2O, 50 mM potassium phosphate, 100 mM KCl, and 2 mM DTT at pH 6.8. NMR experiments were performed on a 500 MHz Varian NMR System using a triple resonance probe with z-axis gradients at 25 °C.

The next data set addresses T3, full length DUSP5 (Homo sapiens, UniProt Q16690).
T3 construct: in the more biologically relevant assay with full length DUSP5 and using pERK2 as substrate; made in house
T3 sequence (Q16690 1-384): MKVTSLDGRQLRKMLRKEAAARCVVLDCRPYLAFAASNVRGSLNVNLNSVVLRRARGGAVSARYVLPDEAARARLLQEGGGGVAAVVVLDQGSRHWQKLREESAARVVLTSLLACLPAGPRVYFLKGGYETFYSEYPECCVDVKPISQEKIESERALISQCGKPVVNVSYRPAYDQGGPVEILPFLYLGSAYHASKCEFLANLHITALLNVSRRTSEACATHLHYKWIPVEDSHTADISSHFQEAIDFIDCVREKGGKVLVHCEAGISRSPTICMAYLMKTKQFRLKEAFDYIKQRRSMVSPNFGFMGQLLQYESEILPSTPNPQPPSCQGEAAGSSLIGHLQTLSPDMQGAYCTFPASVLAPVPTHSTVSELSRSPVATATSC
As to the kind of experiment: ERK dephosphorylation assay (full-length DUSP5, pERK2 substrate, Western blot). The class given is biochemical. The conditions noted are these: full length DUSP5, pERK2 as substrate. As to the method: For this assay, 10 ng of GST-tagged recombinant phosphorylated ERK2 (R&D Systems, 1230-KS) was incubated with and without the indicated DUSP5 proteins (0.5 nM final concentration) for 15 min at room temperature, with or without the indicated drugs. The reactions were halted with 2x Laemmli sample buffer and subjected to SDS-PAGE. The proteins were transferred to polyvinylidene difluoride (PVDF) and immunoblotted using antibodies to pERK (Cell Signaling Tech., #9106) and total ERK, which includes both phosphorylated and unphosphorylated ERK1 and ERK2 (Cell Signaling Tech., #9102). Bound antibodies were visualized using horseradish peroxidase-linked anti-mouse IgG (Cell Signaling Tech, #7076S) and anti-rabbit IgG (Cell Signaling Tech, #7074S), respectively, and ECL reagents (Pierce, #34708) according to the manufacturer’s protocol. For calculating IC50 values, gel bands were imaged by chemiluminescence with either film or digital image capture by a FluorChem HD2 imager (Alpha Innotech). Density of each band was quantified with ImageJ software by using the gel analysis tool. Relative values of phosphorylated ERK present for each drug concentration treatment compared to pERK only controls were calculated. These relative values were then used to obtain IC50 values with GraphPad Prism 6 software. […]

Data set [3] concerns the target T1, DUSP5 PD(WT). Description: p-nitrophenol phosphate (pNPP) phosphatase activity / IC50 assay. Type of data set: biochemical. The settings on record: 1 mL cuvettes, pNPP substrate.
Where [4] appears, read: pNPP as substrate, Michaelis-Menten fit, 1 mL cuvette.

In the case of `O=S(=O)(O)c1ccc2c(S(=O)(=O)O)cc(S(=O)(=O)O)cc2c1` [NTS, Naphthalene trisulfonate], the “effect of detergent on inhibition” value at DUSP5 PD(WT) [1] is on record as “no detergent-effect”. Besides, the aggregation result in data set [2] was “do not appear to form aggregates”.

With `O=S(=O)(O)c1cc(O)c2c(S(=O)(=O)O)cccc2c1` [CSD^3_2320], the “inhibition of panel phosphatases” value with panel of 21 phosphatases is given as “not inhibit any of them significantly”. Moreover, the “binding by HSQC cross-peak shifts” value is recorded as “direct binding” in the data set with DUSP5 PD(C263S) and “binding” with DUSP5 PD(C263S) (listed as CSD3_2320). Besides, the IC50 was 32700 µM and 33000 µM at DUSP5 PD(WT) [1] (phosphatase domain alone, pNPP as substrate, read-out: IC50); 33 µM at full length DUSP5 (read-out: IC50 (mean)); 8 to 96 µM at full length DUSP5 (read-out: IC50 (range)). Moreover, the aggregation result in data set [2] is listed as “does not aggregate; also recorded: no propensity to aggregate; also recorded: no tendency to aggregate”; in data set [2] (listed as CSD3_2320), “no tendency”.

As for `O=[N+]([O-])c1ccc(OP(=O)(O)O)cc1` [pNPP, p-nitrophenol phosphate], at DUSP5 PD(WT) [1] (setting [4]), the Km was 7.6 ± 0.4 mM and the Vmax is 1.35 ± 0.02 × 10^−3 μmol/min.

As to `Cc1ccc(C(=O)Nc2ccc(S(=O)(=O)O)c3cc(S(=O)(=O)O)cc(S(=O)(=O)O)c23)cc1NC(=O)c1cccc(NC(=O)Nc2cccc(C(=O)Nc3cc(C(=O)Nc4ccc(S(=O)(=O)O)c5cc(S(=O)(=O)O)cc(S(=O)(=O)O)c45)ccc3C)c2)c1` [Suramin], the inhibition at 1 µM on DUSP5 PD(WT) [1] (1 μM suramin, 5 mM pNPP, read-out: plateau level of inhibition with increasing Triton X-100) worked out at 30%. Besides, the inhibitory constant (Ki) at DUSP5 PD(WT) [1] (competitive versus pNPP, absence of Triton X-100) was 24.6 µM and 25 µM. For the same compound, the “effect of detergent on inhibition” value is “loss and loss of some inhibitory capability” at DUSP5 PD(WT) [1]; “detergent decreases suramin inhibition” on DUSP5 PD(WT) [1] (listed as suramin). Also, the mode of inhibition result at DUSP5 PD(WT) [1] (varied pNPP and inhibitor) is listed as “competitive inhibitor; also recorded: competitive inhibition”. Also, the “concentration at which aggregates start forming” value in data set [2] is listed as “around 25 μM”. Also, the aggregation result in data set [2] was “forms aggregates in vitro”.

At DUSP5 PD(WT) [3], `[Na+].[Na+].[Na+].[O]=[V]([O-])([O-])[O-]` [sodium orthovanadate] returned a 50% inhibitory concentration (IC50) of 0.088 ± 0.008 µM.

`O=S(=O)([O-])c1cc(S(=O)(=O)[O-])c2[nH]c3c(S(=O)(=O)[O-])cc(S(=O)(=O)[O-])cc3c2c1.[Na+].[Na+].[Na+].[Na+]` [RR506, Carbazole-1,3,6,8-tetrasulfonic acid, tetrasodium salt]: the IC50 on DUSP5 PD(WT) [1] (pNPP substrate, 96-well plate, Triton X-100 at 0.1 %, read-out: IC50 from enzyme assay) stood at 16000 ± 2000 µM. For the same compound, the aggregation entry in data set [2] was “do not appear to form aggregates”.
